Source: US10258038B2, “Use of heterocyclic compounds for controlling nematodes” (BAYER CROPSCIENCE AKTIENGESELLSCHAFT, priority 2014, dated 2019)
Like-named read-outs stand apart in the source and are kept apart here.

Columns and labels:
physchem = type: physicochemical; conditions: reversed-phase C18, acidic range pH 3.4 (formic acid), 55° C.; for chromatographic logP: read-out: log P
Description: 1) Description of Method for Determination of the log P Values (Formic Acid Method)
Eluents for determination in the acidic range (pH 3.4):
Eluent A: acetonitrile+1 ml of formic acid/liter. Eluent B: water+0.9 ml of formic acid/liter.
The lambda max values were determined in the maxima of the chromatographic signals using the UV spectra from 200 nm to 400 nm.

Meloidogyne incognita = Meloidogyne incognita in tomato test (MELGIN soil application); type: in vivo; conditions: application rate 2 ppm in soil; tomato seedling (Solanum lycopersicum); after five weeks
Description: Meloidogyne incognita in Tomato—Test (MELGIN Soil Application)
(§1) Solvent: 4 parts by weight acetone
(§2) Emulsifier: 1 part by weight alkylaryl polyglycol ether
To produce a suitable preparation of active compound, 1 part by weight of active compound is mixed with solvent and emulsifier at the ratio 4:1 and is diluted with water to the desired concentration. The stated concentration refers to the amount of compound per unit of volume soil (mg/1=ppm).
This compound composition is mixed with 500 ml of soil and 4 ml of a nematode suspension (1000 differenciated eggs and larvae of Meloidogyne incognita/ml). The stated concentration refers to the amount of compound per unit of volume soil (mg/1=ppm). The treated soil is filled in 500 ml pots and a tomato seedling (Solanum lycopersicum) is planted.
After five weeks the average number of galls in the tomato roots per pot are determined and efficieny is calculated by using Abbott's formula:
(§3) C=untreated control plants

Globodera rostochiensis = Globodera rostochiensis test (soil application); type: in vivo; conditions: application rate 2 ppm in soil; potato seedling; after six weeks
Description: Globodera rostochiensis—Test (Soil Application)
as §1, §2
To produce a suitable preparation of active compound, 1 part by weight of active compound is mixed with solvent and emulsifier at the ratio 4:1 and is diluted with water to the desired concentration. This compound composition is mixed with soil. The stated concentration refers to the amount of compound per unit of volume soil (mg/1=ppm).
450 ml of this compound composition is mixed with 50 ml of soil infected with Globodera rostochiensis (20.000 nematodes/100 ml), filled in 500 ml pots and a potato seedling is planted.
After six weeks the average number of cysts in the potato roots per pot are determined and efficieny is calculated by using Abbott's formula:
as §3

Pratylenchus zeae = Pratylenchus zeae test (PRATZE soil application); type: in vivo; conditions: application rate 2 ppm in soil; corn (Zea mays); after 2 weeks
Description: Pratylenchus zeae—Test (PRATZE Soil Application)
as §1, §2
(§4) To produce a suitable preparation of active compound, 1 part by weight of active compound is mixed with solvent and emulsifier at the ratio 4:1 and is diluted with water to the desired concentration.
This compound solution is mixed with 500 ml soil infected with Pratylenchus zeae (800 nematodes per 100 ml). The stated concentration refers to the amount of compound per unit of volume soil (mg/1=ppm). The treated soil is filled into 500 ml pots and 3 corn seeds (Zea mays) are sown.
(§5) After 2 weeks the number of nematodes in the corn roots is determined by means of maceration. The roots are cleaned with water, cut into about 1 cm pieces and minced with water in a mixer for 10-15 seconds. The pieces are poured over a 0.2 mm-nematode sieve, rinsed with 400 ml water and the flow rate is collected. After 6 hours the supernatant is aspirated and the number of nematodes is determined microscopically with a counting chamber.
(§6) The average number of nematodes per pot is determined and efficieny is calculated by using Abbott's formula:
as §3

Radopholus similis = Radopholus similis test (soil application); type: in vivo; conditions: application rate 2 ppm in soil; banana seedling; after 2 weeks
Description: Radopholus similis—Test (Soil Application)
as §1, §2, §4
This compound solution is mixed with soil. The stated concentration refers to the amount of compound per unit of volume soil (mg/1=ppm). The treated soil is filled into 250 ml pots and a banana seedling is planted. Afterwards 2.5 ml of a nematode suspension (500 Radopholus similis/ml) are applied.
After 2 weeks the number of nematodes in the banana roots is determined by means of maceration. The roots are cut off, cleaned with water and after adding 25-40 ml 0.01% lactic acid—acid fuchsin solution they are boiled in a microwave. On the next day the roots are rinsed over a 0.025 mm-nematode sieve, roughly minced and macerated with 15-20 ml water in an Ultra Turrax. After filling up with water to 45 ml, the number of nematodes in the supernatant is determined microscopically with a counting chamber.
as §6, §3

Pratylenchus penetrans = Pratylenchus penetrans test (soil application); type: in vivo; conditions: corn (Zea mays), after 2 weeks
Description: Pratylenchus penetrans—Test (Soil Application)
as §1, §2, §4
This compound solution is mixed with 500 ml soil infected with Pratylenchus penetrans (800 nematodes per 100 ml). The stated concentration refers to the amount of compound per unit of volume soil (mg/1=ppm). The treated soil is filled into 500 ml pots and 3 corn seeds (Zea mays) are sown.
as §5, §6, §3

Row | SMILES | activity (efficiency by Abbott's formula, number of cysts in potato roots) (Globodera rostochiensis) [%] | log P (physchem; HPLC) | also measured
1 | O=C(Nc1ccn(-c2c(F)cccc2F)n1)c1ccccc1C(F)(F)F [Compound I-1-75, N-[1-(2,6-difluorophenyl)-1H-pyrazol-3-yl]-2-(trifluoromethyl)benzamide] | 100 |  | chromatographic logP (physchem; HPLC): 2.68; activity (efficiency by Abbott's formula, number of galls in tomato roots) (Meloidogyne incognita): 100%; activity (efficiency by Abbott's formula, number of nematodes in corn roots) (Pratylenchus zeae): 89%; activity (efficiency by Abbott's formula, number of nematodes in banana roots) (Radopholus similis): 90%; activity (efficiency by Abbott's formula, number of nematodes in corn roots) (Pratylenchus penetrans; application rate 2 ppm in soil): 88%
2 | CCN(C(=O)c1ccccc1C(F)(F)F)c1ccn(-c2ncc(F)cc2F)n1 [Compound I-1-468, N-[1-(3,5-difluoropyridin-2-yl)-1H-pyrazol-3-yl]-N-ethyl-2-(trifluoromethyl)benzamide] | 100 |  | chromatographic logP (physchem; reversed-phase C18 HPLC column): 3.23
3 | N#Cc1nccnc1-n1ccc(NC(=O)c2ccccc2C(F)(F)F)n1 [Compound I-1-574, N-[1-(3-Cyanopyrazin-2-yl)-1H-pyrazol-3-yl]-2-(trifluoromethyl)benzamide] | 80 |  | activity (efficiency by Abbott's formula, number of nematodes in corn roots) (Pratylenchus penetrans; application rate 4 ppm in soil): 97%
4 | O=C(Nc1cnn(-c2c(F)cccc2F)n1)c1ccccc1C(F)(F)F [Compound I-2-35, N-[2-(2,6-Difluorophenyl)-2H-1,2,3-triazol-4-yl]-2-(trifluoromethyl)benzamide] | 100 | 2.80 | activity (efficiency by Abbott's formula, number of galls in tomato roots) (Meloidogyne incognita): 100%; activity (efficiency by Abbott's formula, number of nematodes in corn roots) (Pratylenchus penetrans; application rate 2 ppm in soil): 90%
5 | CC(=O)NC1=NN(c2c(F)cccc2F)CC1 [Ia-2, N-[1-(2,6-Difluorophenyl)-4,5-dihydro-1H-pyrazol-3-yl]acetamide] |  | 1.46 | 
6 | CC(=O)Nc1ccn(-c2c(F)cccc2F)n1 [Ia-3, N-[1-(2,6-Difluorophenyl)-1H-pyrazol-3-yl]acetamide] |  | 1.33 | 
7 | Nc1ccn(-c2c(F)cccc2F)n1 [Ia-4, 1-(2,6-Difluorophenyl)-1H-pyrazole-3-amine] |  | 1.13 | 
8 | Nc1ccn(-c2ncc(F)cc2F)n1 [Ib-1, 1-(3,5-Difluoropyridin-2-yl)-1H-pyrazole-3-amine] |  | 0.81 | 
9 | Nc1cnn(-c2c(F)cccc2F)n1 [Ic-8, 2-(2,6-Difluorophenyl)-2H-1,2,3-triazole-4-amine] |  | 1.16 | 
